Results taken from patent US11274082B2, “Tead inhibitors and uses thereof” (Ikena Oncology, Inc., priority 2019, dated 2022).

What was measured:
H226 = test: Anti-proliferation assay in H226 cells; format: cell-based; settings: Homo sapiens, NCI-H226; H226 cells; read-out: H226 EC50
Method: (§1) Certain compounds were tested in TEAD reporter assay, and in H226 and H28. A: EC50<0.1 uM; B: 0.1 uM≤EC50≤0.5 uM; C: EC50>0.5 uM.
Individual cell lines were grown in medium according to supplier instructions and seeded into 96-well plates at a density that ensured logarithmic growth over 72 hours. TEAD inhibitor compounds were administered to cells at a top concentration of 10 μm and subsequently a 10 point 3-fold serial dilution was conducted. After 72 hours, proliferation was quantified using Cell TITERGLO™ (Promega, Inc.) and compared to vehicle control. IC50 and EC50 values were generated using XLFit curve fitting software.

TEAD = TEAD reporter assay (Hippo Pathway TEAD Reporter - MCF7 cell line, luciferase); format: cell-based; settings: Homo sapiens; TEAD Reporter - MCF7 cells; read-out: TEAD Reporter Assay EC50
Source text: TEAD inhibition can be assayed using Hippo Pathway TEAD Reporter—MCF7 Cell Line (BPS Bioscience, Catalog #: 60618).
The TEAD Reporter—MCF7 cell line contains the firefly luciferase gene under the control of TEAD responsive elements stably integrated into the human breast cancer cell line, MCF7. Inside the cells, basal unphosphorylated YAP/TAZ remains in the nucleus and induces the constitutive expression of luciferase reporter. The cell line is validated for the inhibition of the expression of luciferase reporter by the activators of the Hippo pathway.
• 1) Harvest TEAD Reporter—MCF7 cells from culture in growth medium and seed cells at a density of 35,000 cells per well into white clear-bottom 96-well microplate in 45 μl of assay medium. • 2) Incubate cells at 37° C. in a CO2 incubator for overnight. • 3) Dilute the activators (H2O2 or okadaic acid) stock in assay medium. Add 5 μl of diluted activators to the wells. The final concentration of DMSO in assay medium is 0.1%. • 4) Add 5 μl of assay medium with same concentration of DMSO without activator to control wells. • 5) Add 50 μl of assay medium with DMSO to cell-free control wells (for determining background luminescence). • 6) Set up each treatment in at least triplicate. • 7) Incubate cells at 37° C. in a CO2 incubator for 5-6 hours. • 8) Perform luciferase assay using the ONE-Step™ Luciferase Assay System following the protocol provided: Add 100 μl of ONE-Step™ Luciferase reagent per well and rock at room temperature for ˜15 minutes. Measure luminescence using a luminometer. • 9) Data Analysis: Obtain the background-subtracted luminescence by subtracting the average background luminescence (cell-free control wells) from the luminescence reading of all wells.
as §1

| EC50 (H226) [nM] | EC50 (TEAD) [nM] | SMILES |
| --- | --- | --- |
| 100 to 500 | < 100 | CNS(=O)(=O)c1ccc(NCc2ccc3scnc3c2)c(-c2cn(C)cn2)c1 [I-72, 4-(1,3-Benzothiazol-5-ylmethylamino)-N-methyl-3-(1-methylimidazol-4-yl)benzenesulfonamide] |
| 100 to 500 | > 500 | CNS(=O)(=O)c1ccc(NCc2ccc(C(F)(F)F)nc2)c(-c2cn(C)cn2)c1 [I-76, N-Methyl-3-(1-methyl-1H-imidazol-4-yl)-4-(((6-(trifluoromethyl)pyridin-3-yl)methyl)amino)benzenesulfonamide] |
| > 500 | – | CNS(=O)(=O)c1ccc(Oc2cccc(C(F)(F)F)c2)c(-c2cc(C)n[nH]2)c1 [I-20, N-methyl-3-(3-methyl-1H-pyrazol-5-yl)-4-[3-(trifluoromethyl)phenoxy]benzenesulfonamide] |
| < 100 | < 100 | CNS(=O)(=O)c1ccc(Nc2ccc(OC(F)(F)F)cn2)c(-c2cn(C)cn2)c1 [I-84, N-Methyl-3-(1-methylimidazol-4-yl)-4-[[5-(trifluoromethoxy)-2-pyridyl]amino]benzenesulfonamide] |
| > 500 | > 500 | CNS(=O)(=O)c1ccc(Oc2cccc(C(F)(F)F)c2)c(C(N)=O)c1 [I-24] |
| 100 to 500 | > 500 | Cn1cnc(-c2cc(S(C)(=O)=O)ccc2NCc2ccccc2)c1 [I-44, N-Benzyl-2-(1-methylimidazol-4-yl)-4-methylsulfonyl-aniline] |
| 100 to 500 | 100 to 500 | CNS(=O)(=O)c1ccc(NCc2ccccc2)c(-c2cn(C(C)C)cn2)c1 [I-50, 4-(Benzylamino)-3-(1-isopropylimidazol-4-yl)-N-methyl-benzenesulfonamide] |
| 100 to 500 | 100 to 500 | CNS(=O)(=O)c1ccc(N[C@@H]2CCCc3ccccc32)c(-c2cn(C)cn2)c1 [I-47, N-Methyl-3-(1-methylimidazol-4-yl)-4-[[(1R)-tetralin-1-yl]amino]benzenesulfonamide] |
| > 500 | > 500 | CNS(=O)(=O)c1ccc(Nc2cccc(C(F)(F)F)c2)c(C(C)=O)c1 [I-23, 3-acetyl-N-methyl-4-[3-(trifluoromethyl)anilino]benzenesulfonamide] |
| > 500 | – | CNS(=O)(=O)c1ccc(Nc2cccc(C(F)(F)F)c2)c(C(=O)N(C)OC)c1 [I-21, N-methoxy-N-methyl-5-(methylsulfamoyl)-2-[3-(trifluoromethyl)anilino]benzamide] |
| > 500 | > 500 | CC[C@H](Nc1ccc(S(=O)(=O)NC)cc1-c1cn(C)cn1)c1ccccc1 [I-53, N-Methyl-3-(1-methylimidazol-4-yl)-4-[[(1S)-1-phenylpropyl]amino]benzenesulfonamide] |
| > 500 | > 500 | CNS(=O)(=O)c1ccc(N[C@@H](C)c2ccccc2)c(-c2cn(C)cn2)c1 [I-28, N-Methyl-3-(1-methylimidazol-4-yl)-4-[[(1S)-1-phenylethyl]amino]benzenesulfonamide] |
| > 500 | > 500 | CNS(=O)(=O)c1cnc(N[C@@H](C)c2ccccc2)c(-c2cn(C)cn2)c1 [I-34, N-Methyl-5-(1-methylimidazol-4-yl)-6-[[(1S)-1-phenylethyl]amino]pyridine-3-sulfonamide] |
| 100 to 500 | 100 to 500 | CNS(=O)(=O)c1ccc(N[C@H](C)c2ccc(C(F)(F)F)cc2)c(-c2cn(C)cn2)c1 [I-56, N-Methyl-3-(1-methylimidazol-4-yl)-4-[[(1R)-1-[4-(trifluoromethyl)phenyl]ethyl]amino]benzenesulfonamide] |
| > 500 | > 500 | CNS(=O)(=O)c1ccc(N[C@H](CO)c2ccccc2)c(-c2cn(C)cn2)c1 [I-40, 4-[[(1S)-2-Hydroxy-1-phenyl-ethyl]amino]-N-methyl-3-(1-methylimidazol-4-yl)benzenesulfonamide] |
| < 100 | 100 to 500 | CNS(=O)(=O)c1ccc(NCc2cccc(OC(F)(F)F)c2)c(-c2cn(C)cn2)c1 [I-69, A-Methyl-3-(1-methylimidazol-4-yl)-4-[[3-(trifluoromethoxy)phenyl]methylamino]benzenesulfonamide] |

| EC50 (H226) [nM] | EC50 (TEAD) [nM] | SMILES |
| --- | --- | --- |
| 100 to 500 | > 500 | CNS(=O)(=O)c1ccc(NCc2ccccc2)c(-c2nnc(C)o2)c1 [I-61, 4-(Benzylamino)-N-methyl-3-(5-methyl-1,3,4-oxadiazol-2-yl)benzenesulfonamide] |
| < 100 | < 100 | CNS(=O)(=O)c1ccc(NCc2ccccc2C(F)(F)F)c(-c2cn(C)cn2)c1 [I-74, N-Methyl-3-(1-methylimidazol-4-yl)-4-[[2-(trifluoromethyl)phenyl]methylamino]benzenesulfonamide] |
| < 100 | < 100 | CNS(=O)(=O)c1ccc(N[C@@H]2CCc3ccccc32)c(-c2cn(C)cn2)c1 (single isomer, unassigned) [I-59] |
| < 100 | < 100 | CNS(=O)(=O)c1ccc(NCc2ccc(C(F)(F)F)cc2F)c(-c2cn(C)cn2)c1 [I-68, 4-[[2-Fluoro-4-(trifluoromethyl)phenyl]methylamino]-N-methyl-3-(1-methylimidazol-4-yl)benzenesulfonamide] |
| 100 to 500 | 100 to 500 | CNS(=O)(=O)c1ccc(Nc2ccc(C(F)(F)F)cn2)c(-c2cn(Cc3ccccc3)cn2)c1 [I-71, 3-(1-Benzylimidazol-4-yl)-N-methyl-4-[[5-(trifluoromethyl)-2-pyridyl]amino]benzenesulfonamide] |
| < 100 | 100 to 500 | CCNS(=O)(=O)c1ccc(NCc2ccccc2)c(-c2cn(C)cn2)c1 [I-41, 4-(Benzylamino)-N-ethyl-3-(1-methylimidazol-4-yl)benzenesulfonamide] |
| 100 to 500 | 100 to 500 | CNS(=O)(=O)c1cnc(N[C@H](C)c2ccccc2)c(-c2cn(C)cn2)c1 [I-35, N-Methyl-5-(1-methylimidazol-4-yl)-6-[[(1R)-1-phenylethyl]amino]pyridine-3-sulfonamide] |
| – | > 500 | CNS(=O)(=O)c1ccc(Oc2cccc(C(F)(F)F)c2)c(-c2nc(C)c[nH]2)c1 [I-25, N-Methyl-3-(4-methyl-1H-imidazol-2-yl)-4-[3-(trifluoromethyl)phenoxy]benzenesulfonamide] |
| 100 to 500 | 100 to 500 | CNS(=O)(=O)c1ccc(N[C@H](C)c2cccc(C(F)(F)F)c2)c(-c2cn(C)cn2)c1 [I-63, N-Methyl-3-(1-methylimidazol-4-yl)-4-[[(1R)-1-[3-(trifluoromethyl)phenyl]ethyl]amino]benzenesulfonamide] |
| 100 to 500 | > 500 | Cn1cnc(-c2cc(S(C)(=O)=O)ccc2Nc2cc(C(F)(F)F)ccn2)c1 [I-48, N-[2-(1-Methylimidazol-4-yl)-4-methylsulfonyl-phenyl]-4-(trifluoromethyl)pyridin-2-amine] |
| < 100 | 100 to 500 | CNS(=O)(=O)c1ccc(Nc2cc(C(F)(F)F)ccn2)c(-c2cn(C(C)C)cn2)c1 [I-55, 3-(1-Isopropylimidazol-4-yl)-N-methyl-4-[[4-(trifluoromethyl)-2-pyridyl]amino]benzenesulfonamide] |
| 100 to 500 | 100 to 500 | CNS(=O)(=O)c1ccc(Nc2cc(C(F)(F)F)ccn2)c(-c2nnc(C)o2)c1 [I-62, N-Methyl-3-(5-methyl-1,3,4-oxadiazol-2-yl)-4-[[4-(trifluoromethyl)-2-pyridyl]amino]benzenesulfonamide] |
| 100 to 500 | > 500 | CNS(=O)(=O)c1ccc(Nc2ccc(C#N)cn2)c(-c2cn(C)cn2)c1 [I-86, 4-[(5-Cyano-2-pyridyl)amino]-N-methyl-3-(1-methylimidazol-4-yl)benzenesulfonamide] |
| > 500 | – | CNS(=O)(=O)c1ccc(Oc2cccc(C(F)(F)F)c2)c(B(O)O)c1 [I-18, [5-(methylsulfamoyl)-2-[3-(trifluoromethyl)phenoxy]phenyl]boronic acid] |
| > 500 | – | CNS(=O)(=O)c1ccc(Oc2cccc(C(F)(F)F)c2)c(-c2cnc(C)[nH]2)c1 [I-19, N-Methyl-3-(2-methyl-1H-imidazol-5-yl)-4-[3-(trifluoromethyl)phenoxy]benzenesulfonamide] |
| < 100 | – | CNS(=O)(=O)c1ccc(Nc2ccc(C(F)(F)F)cn2)c(-c2cn(C3CC3)cn2)c1 [I-87, 3-(1-Cyclopropylimidazol-4-yl)-N-methyl-4-[[5-(trifluoromethyl)-2-pyridyl]amino]benzenesulfonamide] |
